{"source": "patent US11071746B2", "about": "“Compositions and methods for protecting organs from ischemia/reperfusion injury associated with transplantation” (THE TRUSTEES OF THE UNIVERSITY OF PENNSYLVANIA, priority 2016, dated 2021)", "key": {"[1]": {"experiment": "LC/MS/MS drug levels in lung tissue, BALF and perfusate during ex vivo lung perfusion (EVLP)", "set-up": "species or system human", "description": "(§1) Donor lungs were offered to our lung-transplantation program through our local organ procurement organization (Gift of Life) and were de-identified. Donor lungs that met the entry criteria (i.e., non-transplantable) were retrieved, delivered to our center by means of standard cold-storage transport in a low-potassium dextran solution (Perfadex, Vitrolife), and perfused in the EVLP system for 3-6 hours. Lungs were considered suitable for transplantation if during EVLP the PO2:FIO2 ratio—that is, the partial pressure of oxygen ex vivo (PO2) to the fraction of inspired oxygen (FIO2)—was 350 mm Hg or more and if deterioration from baseline levels of all three physiological measurements (pulmonary vascular resistance, dynamic compliance, and peak inspiratory pressure) was less than 15% while the lungs were ventilated with the use of a tidal volume of 7 ml per kilogram of donor body weight and a rate of 7 breaths per minute during the perfusion period (FIG. 1)\n(§2) Technique: The acellular EVLP technique has been described in detail elsewhere (Cypel et al., N Engl J Med. 2011 Apr. 14; 364(15):1431-40). After 3-6 hours of EVLP, the lungs were cooled to 4° C. over a period of 10 minutes. Thereafter, perfusion and ventilation were stopped (with FIO2 changed to 0.21 for the purpose of lung storage), and the trachea was clamped at full inspiration to maintain the lungs in a state of inflation. The lungs were then stored at 4° C. in Perfadex until transplantation.\nLGM2605 (SDG) ACCUMULATES IN HUMAN LUNG TISSUES: Using LC/MS/MS analytical methodologies, we determined synthetic SDG (LGM2605) levels in left and right lung tissues, in bronchoalveolar lavage fluid (BALF) and perfusate fluid over multiple time points spanning from 30 minutes post aerosolized instillation of 200 mg drug/lung, to 360 minutes (FIG. 2). Of importance is that aerosolized SDG (LGM2605) (i.e, instilled in airways), leaks into the systemic circulation and can be detected in the perfusate for at least 240 minutes. Importantly, levels in lung tissue biopsies show a peak of drug by 120 minutes, persisting for up to 240 minutes. Additionally, levels in BALF persist beyond 360 min."}, "human donor lungs": {"tested_on": "human donor lungs", "experiment": "Ex vivo functional assessment (oxygenation, compliance) of EVLP human donor lungs", "settings": "aerosolized drug, EVLP #3 human lung", "description": "as §1, §2\nEx Vivo Functional Assessment: For the functional assessment ex vivo, tidal volume was set at 10 ml per kilogram of donor body weight and 10 breaths per minute, with FIO2 at 1.0. Lung function was evaluated hourly during EVLP according to the following calculations: PO2=[left atrial PO2−pulmonary-artery PO2 (in mm Hg)], and pulmonary vascular resistance=[(pulmonary-artery pressure-left atrial pressure)×80]÷pulmonary-artery flow (in dynes·seconds·cm^−5), dynamic compliance (in milliliters per centimeter of water), and peak inspiratory pressure (in centimeters of water). […]"}, "hemeoxygenase-1 (HO-1)": {"tested_on": "hemeoxygenase-1 (HO-1)", "experiment": "qRT-PCR gene expression in EVLP lung tissues: HO-1", "set-up": "species or system human", "settings": "EVLP #4, 200 mg/lung instilled in right lung, vehicle in contralateral lung", "description": "(§3) GENE EXPRESSION LEVEL OF THE NRF2-REGULATED STRESS RESPONSE ENZYME HO-1: In a separate study (EVLP #4), SDG (LGM2605) was instilled only in one lung (right) while vehicle control was instilled in the contralateral lung (FIG. 4). The concentration of the drug (200 mg/lung) was kept the same as above. […] A drop in the left lung may reflect action of SDG (LGM2605) on that lung through the perfusate (we have shown above that some of the drug appears into the systemic circulation)."}, "NQO-1": {"tested_on": "NQO-1", "experiment": "qRT-PCR gene expression in EVLP lung tissues: NQO1", "set-up": "species or system human", "settings": "EVLP #4, treated lung vs vehicle-treated lung, 120' sampling time", "description": "as §3\n(§4) GENE EXPRESSION LEVELS OF THE NRF2-REGULATED ANTIOXIDANT ENZYMES NQO1 AND GSTM1 INCREASE IN HUMAN LUNG (EVLP) TISSUES TREATED WITH LGM2605 (SDG): Nrf2 is a transcription factor that regulates the expression of antioxidant and cytoprotective genes such as NQO-1 and GSTMu1. […] Our findings confirm that SDG boosts endogenous antioxidant defenses in human lung tissues during ischemia (FIG. 6)."}, "GSTMu1": {"tested_on": "GSTMu1", "experiment": "qRT-PCR gene expression in EVLP lung tissues: GSTM1", "set-up": "species or system human", "settings": "EVLP #4, treated lung vs vehicle-treated lung, 120' sampling time", "description": "as §3, §4"}, "IL-1β": {"tested_on": "IL-1β", "experiment": "qRT-PCR gene expression in EVLP lung tissues: IL-1β", "set-up": "species or system human", "settings": "EVLP #4, treated right lung vs vehicle-treated lung", "description": "as §3\n(§5) Our findings confirm that SDG decreases inflammatory parameters in human lung tissues during ischemia."}, "IL-6": {"tested_on": "IL-6", "experiment": "qRT-PCR gene expression in EVLP lung tissues: IL-6", "set-up": "species or system human", "settings": "EVLP #4, treated right lung vs vehicle-treated lung", "description": "as §3, §5"}, "COX-2": {"tested_on": "COX-2", "experiment": "qRT-PCR gene expression in EVLP lung tissues: COX-2", "settings": "aerosolized instillation, human EVLP lung tissues", "description": "as §3\nGENE EXPRESSION LEVELS OF THE COX-2 (AN ENZYME PROMOTING INFLAMMATION AND PAIN) DECREASE IN HUMAN LUNG (EVLP) TISSUES TREATED WITH LGM2605 (SDG): Cyclo-oxygenease-2 is an enzyme responsible for the formation of prostanoids such as thromboxane and prostanglandins. Pharmacological inhibition of COX can provide relief from symptoms of inflammation and pain. […] A drop in the vehicle-treated lung may reflect action of the drug via the perfusate (systemic circulation—FIG. 8)."}, "[2]": {"settings": "aerosolized instillation of 200 mg drug/lung, human EVLP lungs, lung tissue biopsies"}}, "data": [{"smiles": "COc1cc(C[C@@H](CO[C@@H]2O[C@H](CO)[C@@H](O)[C@H](O)[C@H]2O)[C@H](CO[C@@H]2O[C@H](CO)[C@@H](O)[C@H](O)[C@H]2O)Cc2ccc(O)c(OC)c2)ccc1O", "note": "[LGM2605, secoisolariciresinol diglucoside]", "values": [{"measurement": "persistence of drug levels in BALF", "setting": "[1]; aerosolized instillation of 200 mg drug/lung, human EVLP lungs, BALF", "value": "> 360", "unit": "min"}, {"measurement": "persistence of drug levels in lung tissue biopsies", "setting": "[1]; [2]", "value": "up to 240 minutes"}, {"measurement": "time of peak of drug in lung tissue biopsies", "setting": "[1]; [2]", "value": "≤ 120", "unit": "min"}, {"measurement": "time drug can be detected in the perfusate", "setting": "[1]; aerosolized instillation of 200 mg drug/lung, human EVLP lungs, perfusate", "value": "at least 240 minutes"}, {"measurement": "accumulation in lung", "setting": "[1]; regardless of route of delivery (inhaled or intravenous)", "value": "accumulates in lung"}, {"measurement": "dynamic compliance", "setting": "human donor lungs", "value": "improving"}, {"measurement": "static compliance", "setting": "human donor lungs", "value": "improving"}, {"measurement": "P/F ratio (oxygenation) after treatment", "setting": "human donor lungs; improved from 200 before drug", "value": "> 350"}, {"measurement": "HO-1 gene expression change", "setting": "hemeoxygenase-1 (HO-1)", "value": "drop"}, {"measurement": "NQO-1 gene expression change", "setting": "NQO-1", "value": "robust increase"}, {"measurement": "GSTMu1 gene expression change", "setting": "GSTMu1", "value": "robust increase"}, {"measurement": "IL-1β gene expression change", "setting": "IL-1β", "value": "significantly reduced"}, {"measurement": "IL-6 gene expression change", "setting": "IL-6", "value": "significantly reduced"}, {"measurement": "COX-2 gene expression change", "setting": "COX-2", "value": "blocks entirely"}, {"measurement": "time to entire block of COX-2 expression after instillation", "setting": "COX-2", "value": "≤ 50", "unit": "min"}]}]}
